test system: rhythmic bladder contractions induced by substance P; test: Inhibitory effect on the rhythmic bladder contractions induced by substance P in anesthetized rats; format: in vivo, rat; details: time during which frequency of rhythmic contraction was completely inhibited, 0.25 mg/kg of the compound, substance P infusion
Description: Inhibitory effect on the rhythmic bladder contractions induced by substance P in anesthetized rats
For the experiments, Sprague-Dawley female rats (9 to 12 weeks old) weighing between 200 to 300 g were used. After urethane anesthetization (subcutaneously administered with a dose of 1.2 g/kg), cannulae were placed in both right and left femoral veins. One intravenous catheter was used for administration of compounds, and the other was for the substance P (0.33 μg/kg/min) infusion. We also cannulated into ureter to pass urine. Polyethylene catheters were inserted into carotid artery for continuous monitoring of arterial blood pressure and heart rate. For continuous infusion, transurethral bladder catheter was inserted into the bladder through the urethra and tied in place by a ligature around the urethral orifice. One end of the catheter was attached to a pressure transducer in order to measure intravesical pressure. The other end of the catheter was used for infusion of saline into the bladder. After stabilization of blood pressure and heart rate and after the bladder was emptied, cystometry was performed by filling the bladder slowly with about 0.6 ml of saline. After about 10 minutes, intravenous infusion of substance P (0.33 μg/kg/min) was started for stabilization of the micturition reflex. Compounds were administered after stable rhythmic bladder contraction was obtained over 15 minutes. All compounds were dissolved or suspended in saline containing 0.5% Tween 80 for intravenous administration (0.1 ml/kg).
A 100% inhibition time (minute) of the selected compounds of the present invention is shown in the following Table 65 with a rank of A, B or C. These ranges are as mentioned below. A≧20>B≧10>C (minute)

Row | SMILES | 100% inhibition time range
1 | CSc1ccc(-c2nc(CC(=O)O)c(-c3ccsc3)o2)cc1 [Preparation Example 440] | C (A≧20>B≧10>C (minute))
2 | O=C(O)Cc1nc(-c2ccc(F)cc2)oc1-c1cc2ccccc2o1 [Preparation Example 254] | C (A≧20>B≧10>C (minute))
3 | CC(C)c1ncc(-c2nc(CC(=O)O)c(-c3ccsc3)o2)cn1 [Preparation Example 476] | B (A≧20>B≧10>C (minute))
4 | C[S+]([O-])Cc1nc(-c2ccc(C#N)cc2)[nH]c1-c1ccccc1 (centres unmarked) [Preparation example 137] | C (A≧20>B≧10>C (minute))
5 | O=C(O)Cc1sc(-c2ccc(F)cc2)nc1-c1ccc(Cl)s1 [Preparation Example 568] | A (A≧20>B≧10>C (minute))
6 | O=C(O)Cc1nc(-c2ccc3ncccc3c2)oc1-c1ccsc1 [Preparation Example 442] | C (A≧20>B≧10>C (minute))
7 | CS(=O)(=O)Nc1ccccc1-c1oc(-c2ccc(F)cc2)nc1CC(=O)O [Preparation Example 238] | C (A≧20>B≧10>C (minute))
8 | CN(C)c1ccc(-c2nc(-c3ccc(Cl)s3)c(CC(=O)O)s2)cn1 [Preparation Example 571] | A (A≧20>B≧10>C (minute))
9 | CN(C)c1ccc(-c2nc(CC(=O)O)c(-c3ccc(Cl)s3)o2)cn1 [Preparation Example 260] | A (A≧20>B≧10>C (minute))
10 | CCCc1nc(-c2ccc(C#N)cc2)[nH]c1-c1ccccc1 [Preparation example 31] | A (A≧20>B≧10>C (minute))
11 | O=C(O)Cc1nc(-c2ccc(N3CCSC3)nc2)oc1-c1ccsc1 [Preparation Example 529] | B (A≧20>B≧10>C (minute))
12 | O=C(O)Cc1sc(-c2cc3ccccc3s2)nc1-c1ccc(Cl)c(F)c1 [Preparation Example 583] | B (A≧20>B≧10>C (minute))
13 | COc1ccc(-c2nc(-c3ccc(Cl)s3)c(CC(=O)O)s2)cc1 [Preparation Example 570] | A (A≧20>B≧10>C (minute))
14 | CSc1cccc(-c2nc(CC(=O)O)c(-c3ccc(Cl)s3)o2)c1 [Preparation Example 457] | B (A≧20>B≧10>C (minute))
15 | CCSc1ccc(-c2nc(CC(=O)O)c(-c3ccc(Cl)s3)o2)cc1 [Preparation Example 449] | B (A≧20>B≧10>C (minute))
16 | CCc1nc(-c2ccc(C)nc2)[nH]c1-c1ccccc1 [Preparation example 28] | B (A≧20>B≧10>C (minute))
17 | N#Cc1cccc(-c2oc(-c3ccc(F)cc3)nc2CC(=O)O)c1 [Preparation Example 522] | B (A≧20>B≧10>C (minute))
18 | CCOc1c(F)cc(-c2oc(-c3ccc(F)cc3)nc2CC(=O)O)cc1OC [Preparation Example 251] | C (A≧20>B≧10>C (minute))
19 | CCc1[nH]c(-c2sccc2CO)nc1-c1cccnc1.Cl.Cl [Preparation example 67, 5-ethyl-2-(3-hydroxymethylthiphen-2-yl)-4-(3-pyridyl)imidazole dihydrochloride] | B (A≧20>B≧10>C (minute))
20 | COc1cc(-c2nc(CC(=O)O)c(-c3ccc(Cl)s3)o2)ccc1O [Preparation Example 289] | B (A≧20>B≧10>C (minute))
21 | O=C(O)Cc1nc(-c2ccc(F)cc2)oc1-c1ccc2ncccc2c1 [Preparation Example 239] | C (A≧20>B≧10>C (minute))
22 | O=C(O)Cc1nc(-c2ccc(F)cc2)oc1-c1ccco1 [Preparation Example 270] | B (A≧20>B≧10>C (minute))

Row | SMILES | 100% inhibition time range
23 | Cc1ccc(-c2nc(CC(=O)O)c(-c3cccs3)o2)cc1 [Preparation Example 156] | B (A≧20>B≧10>C (minute))
24 | COc1ccc(-c2nc(CC(=O)O)c(-c3ccc(Cl)s3)o2)cc1 [Preparation Example 523] | B (A≧20>B≧10>C (minute))
25 | COCc1nc(-c2ccc(C#N)cc2)[nH]c1-c1cccnc1 [Preparation example 125] | C (A≧20>B≧10>C (minute))
26 | O=C(Cc1nc(-c2ccc(F)cc2)oc1-c1ccsc1)NS(=O)(=O)c1cccnc1 [Preparation Example 371] | C (A≧20>B≧10>C (minute))
27 | O=C(O)Cc1nc(-c2ccc(Cl)cc2)oc1-c1ccco1 [Preparation Example 201] | C (A≧20>B≧10>C (minute))
28 | O=C(O)Cc1nc(-c2ccc(F)cc2)oc1-c1cccc(Cl)c1 [Preparation Example 241] | C (A≧20>B≧10>C (minute))
29 | O=C(O)Cc1nc(-c2ccc(CO)cc2)oc1-c1ccc(Cl)s1 [Preparation Example 436] | C (A≧20>B≧10>C (minute))
30 | CCCc1nc(-c2ccc(F)cc2)[nH]c1-c1cccnc1 [Preparation example 93] | B (A≧20>B≧10>C (minute))
31 | CCc1nc(-c2ccc(C)nc2)[nH]c1-c1cncs1 [Preparation example 83] | B (A≧20>B≧10>C (minute))
32 | COc1ccc(-c2oc(-c3ccc(F)cc3)nc2CC(=O)O)cc1OC [Preparation Example 160] | C (A≧20>B≧10>C (minute))
33 | CN(C)c1ncc(-c2nc(-c3cccs3)c(CC(=O)O)s2)cn1 [Preparation Example 580] | C (A≧20>B≧10>C (minute))
34 | O=C(O)Cc1nc(-c2ccc3nccn3c2)oc1-c1ccc(Cl)s1 [Preparation Example 630] | C (A≧20>B≧10>C (minute))
35 | CN(C)c1ncc(-c2nc(-c3cccs3)c(CC(=O)O)o2)cn1 [Preparation Example 505] | B (A≧20>B≧10>C (minute))
36 | O=C(O)Cc1nc(-c2cc3ccccc3cn2)oc1-c1cccs1 [Preparation Example 276] | C (A≧20>B≧10>C (minute))
37 | CS(=O)(=O)NC(=O)Cc1nc(-c2ccc(F)cc2)oc1-c1ccsc1.[Na] [Preparation Example 370, N-[2-(4-fluorophenyl)-5-(3-thienyl)oxazol-4-ylacetyl]methanesulfonamide sodium salt] | C (A≧20>B≧10>C (minute))
38 | OCc1[nH]c(-c2csc(Cl)c2)nc1-c1cccnc1 [Preparation Example 482, 2-(5-chloro-thiophen-3-yl)-5-hydroxymethyl-4-(3-pyridyl)imidazole] | C (A≧20>B≧10>C (minute))
39 | CCc1c(-c2cccnc2)nc(-c2ccc(F)cc2)n1C.Cl.Cl [Preparation example 102, 5-ethyl-2-(4-fluoro-phenyl)-1-methyl-4-(3-pyridyl)imidazole dihydrochloride] | C (A≧20>B≧10>C (minute))
40 | O=C(O)Cc1nc(-c2ccc(F)cc2)oc1-c1cccc(O)c1 [Preparation Example 258] | C (A≧20>B≧10>C (minute))
41 | Cc1csc(-c2oc(-c3ccc(F)cc3)nc2CC(=O)O)c1 [Preparation Example 164] | B (A≧20>B≧10>C (minute))
42 | CN(C)c1ncc(-c2nc(CC(=O)O)c(-c3ccc(Cl)s3)s2)cn1 [Preparation Example 611] | B (A≧20>B≧10>C (minute))
43 | CCc1nc(-c2ccc(F)cc2)[nH]c1-c1cccnc1C [Preparation example 48] | C (A≧20>B≧10>C (minute))
44 | CCc1nc(-c2ccc(F)cc2)oc1-c1cccnc1 [Preparation Example 532] | C (A≧20>B≧10>C (minute))

Reference: patent publication US7759373B2, “Large conductance calcium-activated K channel opener” (Mitsubishi Tanabe Pharma Corporation, priority 2001, dated 2010)
